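GI50 marks 50% less growth. TGI: concentration producing complete growth inhibition.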
Columns and labels:
Test in all cases: inhibition of tumour cell growth, NCI panel, 384-well format
[1] = tested on: 786-0 renal
[2] = tested on: A498 renal
[3] = tested on: A549 NSCLC
[4] = tested on: ACHN renal
[5] = tested on: BT-549 breast
[6] = tested on: CAKI-1 renal
[7] = tested on: CCRF-CEM leukemia
[8] = tested on: COLO 205 colon
[9] = tested on: DU-145 prostate
[10] = tested on: HCC-2998 colon
[11] = tested on: HCT-116 colon
[12] = tested on: HCT-15 colon
[13] = tested on: HL-60(TB) leukemia
[14] = tested on: HOP-62 NSCLC
[15] = tested on: HOP-92 NSCLC
[16] = tested on: HT29 colon
[17] = tested on: IGROV1 ovarian
[18] = tested on: KM12 colon
[19] = tested on: LOX IMVI melanoma
[20] = tested on: M14 melanoma
[21] = tested on: MALME-3M melanoma
[22] = tested on: MCF7 breast
[23] = tested on: MDA-MB-231 breast
[24] = tested on: MDA-MB-435 melanoma
[25] = tested on: MDA-MB-468 breast
[26] = tested on: MOLT-4 leukemia
[27] = tested on: NCI-H226 lung
[28] = tested on: NCI-H23 lung
[29] = tested on: NCI-H322M lung
[30] = tested on: NCI-H460 NSCLC
[31] = tested on: NCI-H522 lung
[32] = tested on: NCI/ADR-RES ovarian
[33] = tested on: OVCAR-3 ovarian
[34] = tested on: OVCAR-4 ovarian
[35] = tested on: OVCAR-5 ovarian
[36] = tested on: OVCAR-8 ovarian
[37] = tested on: PC-3 prostate
[38] = tested on: RPMI-8226 leukemia
[39] = tested on: RXF 393 renal
[40] = tested on: SF-268 CNS
[41] = tested on: SF-295 CNS
[42] = tested on: SF-539 CNS
[43] = tested on: SK-MEL-2 melanoma
[44] = tested on: SK-MEL-28 melanoma
[45] = tested on: SK-MEL-5 melanoma
[46] = tested on: SK-OV-3 ovarian
[47] = tested on: SN12C renal
[48] = tested on: SNB-19 CNS
[49] = tested on: SR leukemia
[50] = tested on: SW-620 colon
[51] = tested on: T-47D breast
[52] = tested on: TK-10 renal
[53] = tested on: U251 glioblastoma
[54] = tested on: UACC-257 melanoma
[55] = tested on: UACC-62 melanoma
[56] = tested on: UO-31 renal

Q: Cc1ccc(NC(=O)c2ccc(CN3CC[C@H](N(C)C)C3)c(C(F)(F)F)c2)cc1Nc1nccc(-c2cncnc2)n1 was tested. Which GI50 [1] did it give?
A: 1890 nM

Q: And the TGI [1]?
A: 3470 nM

Q: What about the GI50 [2] of the same compound?
A: 2690 nM

Q: What about the TGI [2] of the same compound?
A: 6220 nM

Q: What about the GI50 [3] of the same compound?
A: 3010 nM

Q: What about the TGI [3] of the same compound?
A: 10900 nM

Q: And the GI50 [4]?
A: 1840 nM

Q: What about the TGI [4] of the same compound?
A: 4100 nM

Q: And the GI50 [5]?
A: 3960 nM

Q: And the TGI [5]?
A: 10000 nM

Q: And the GI50 [6]?
A: 2860 nM

Q: And the TGI [6]?
A: 6720 nM

Q: What about the GI50 [7] of the same compound?
A: 1990 nM

Q: What about the TGI [7] of the same compound?
A: 3440 nM

Q: And the GI50 [8]?
A: 396 nM

Q: What about the TGI [8] of the same compound?
A: 1780 nM

Q: And the GI50 [9]?
A: 6800 nM

Q: What about the TGI [9] of the same compound?
A: 18900 nM

Q: What about the GI50 [10] of the same compound?
A: 1160 nM

Q: What about the TGI [10] of the same compound?
A: 2640 nM

Q: And the GI50 [11]?
A: 1380 nM

Q: And the TGI [11]?
A: 2740 nM

Q: And the GI50 [12]?
A: 2490 nM

Q: And the TGI [12]?
A: 5660 nM

Q: What about the GI50 [13] of the same compound?
A: 433 nM

Q: What about the TGI [13] of the same compound?
A: 1310 nM

Q: And the GI50 [14]?
A: 2190 nM

Q: What about the TGI [14] of the same compound?
A: 6540 nM

Q: And the GI50 [15]?
A: 1640 nM

Q: And the TGI [15]?
A: 3140 nM

Q: What about the GI50 [16] of the same compound?
A: 947 nM

Q: And the TGI [16]?
A: 2190 nM

Q: What about the GI50 [17] of the same compound?
A: 3680 nM

Q: What about the TGI [17] of the same compound?
A: 13900 nM

Q: And the GI50 [18]?
A: 2510 nM

Q: And the TGI [18]?
A: 5920 nM

Q: And the GI50 [19]?
A: 1030 nM

Q: And the TGI [19]?
A: 2220 nM

Q: And the GI50 [20]?
A: 233 nM

Q: What about the TGI [20] of the same compound?
A: 811 nM

Q: What about the GI50 [21] of the same compound?
A: 147 nM

Q: What about the TGI [21] of the same compound?
A: 436 nM

Q: And the GI50 [22]?
A: 2310 nM

Q: What about the TGI [22] of the same compound?
A: 7760 nM

Q: And the GI50 [23]?
A: 1750 nM

Q: What about the TGI [23] of the same compound?
A: 3240 nM

Q: What about the GI50 [24] of the same compound?
A: 1050 nM

Q: And the TGI [24]?
A: 3510 nM

Q: What about the GI50 [25] of the same compound?
A: 2180 nM

Q: And the TGI [25]?
A: 3660 nM

Q: And the GI50 [26]?
A: 1780 nM

Q: And the TGI [26]?
A: 3170 nM

Q: What about the GI50 [27] of the same compound?
A: 2090 nM

Q: What about the TGI [27] of the same compound?
A: 5070 nM

Q: What about the GI50 [28] of the same compound?
A: 2060 nM

Q: And the TGI [28]?
A: 7780 nM

Q: And the GI50 [29]?
A: 3920 nM

Q: What about the TGI [29] of the same compound?
A: 12800 nM

Q: And the GI50 [30]?
A: 1670 nM

Q: What about the TGI [30] of the same compound?
A: 3350 nM

Q: What about the GI50 [31] of the same compound?
A: 1520 nM

Q: What about the TGI [31] of the same compound?
A: 3400 nM

Q: And the GI50 [32]?
A: 3880 nM

Q: And the TGI [32]?
A: 13300 nM

Q: And the GI50 [33]?
A: 2400 nM

Q: And the TGI [33]?
A: 5420 nM

Q: What about the GI50 [34] of the same compound?
A: 2430 nM

Q: And the TGI [34]?
A: 6600 nM

Q: And the GI50 [35]?
A: 1860 nM

Q: And the TGI [35]?
A: 4570 nM

Q: And the GI50 [36]?
A: 2190 nM

Q: And the TGI [36]?
A: 5300 nM

Q: What about the GI50 [37] of the same compound?
A: 3380 nM

Q: What about the TGI [37] of the same compound?
A: 8450 nM

Q: What about the GI50 [38] of the same compound?
A: 1340 nM

Q: And the TGI [38]?
A: 2620 nM

Q: And the GI50 [39]?
A: 1520 nM

Q: What about the TGI [39] of the same compound?
A: 3220 nM

Q: What about the GI50 [40] of the same compound?
A: 2720 nM

Q: What about the TGI [40] of the same compound?
A: 6990 nM

Q: What about the GI50 [41] of the same compound?
A: 1900 nM

Q: And the TGI [41]?
A: 3420 nM

Q: And the GI50 [42]?
A: 1430 nM

Q: What about the TGI [42] of the same compound?
A: 2750 nM

Q: What about the GI50 [43] of the same compound?
A: 1200 nM

Q: What about the TGI [43] of the same compound?
A: 2460 nM

Q: What about the GI50 [44] of the same compound?
A: 304 nM

Q: And the TGI [44]?
A: 1130 nM

Q: And the GI50 [45]?
A: 674 nM

Q: What about the TGI [45] of the same compound?
A: 1990 nM

Q: And the GI50 [46]?
A: 2090 nM

Q: And the TGI [46]?
A: 4530 nM

Q: And the GI50 [47]?
A: 2580 nM

Q: And the TGI [47]?
A: 6550 nM

Q: And the GI50 [48]?
A: 4560 nM

Q: And the TGI [48]?
A: 13600 nM

Q: And the GI50 [49]?
A: 1820 nM

Q: And the TGI [49]?
A: 3230 nM

Q: What about the GI50 [50] of the same compound?
A: 3080 nM

Q: What about the TGI [50] of the same compound?
A: 10600 nM

Q: What about the GI50 [51] of the same compound?
A: 1530 nM

Q: And the TGI [51]?
A: 3060 nM

Q: And the GI50 [52]?
A: 2200 nM

Q: And the TGI [52]?
A: 4710 nM

Q: What about the GI50 [53] of the same compound?
A: 1950 nM

Q: And the TGI [53]?
A: 3760 nM

Q: What about the GI50 [54] of the same compound?
A: 430 nM

Q: What about the TGI [54] of the same compound?
A: 1760 nM

Q: And the GI50 [55]?
A: 318 nM

Q: And the TGI [55]?
A: 1290 nM

Q: And the GI50 [56]?
A: 2000 nM

Q: And the TGI [56]?
A: 4130 nM
